Measurements from patent publication US20240336896A1, “MODIFIED PRODUCER CELLS FOR EXTRACELLULAR VESICLE PRODUCTION” (LONZA SALES AG, priority 2021, published 2024).
pIC50: −log10 of the molar value. Like-named read-outs stand apart in the source and are kept apart here.

Key:
[1] = system: primary murine polymorphonuclear neutrophils, RAW264.7 monocytic cells, and 4T1 murine mammary cancer cells; settings: Baek et al., Endocrinology 2021; cited from earlier work
[2] = system: 1919 HiBit reporter cell line; assay: HiBit luciferase reporter assay of EV production, agent supplemented into media; type: cell-based
HiBit reporter cell line [3] = settings: for Day 4 VCD / Day 4 Viability: 4 day; for D6 VCD / Day 6 Viability: 6 day
HiBit reporter cell line [4] = assay: viability and viable cell density (VCD) of treated producer cells
[5] = system: HEK producer cell line producing Protein X EVs (PrX); assay: EV yield in total particles, PrX producer cells; type: cell-based
Experimental: (§1) The cells lines were treated with simvastatin (5 nM and 10 nM) for 10 days prior to EV purification.

[6] = system: HEK producer cell line producing IL-12 EVs (exoIL-12); assay: EV yield in total particles, exoIL-12 producer cells; type: cell-based
Experimental: as §1

CHO-S cells = assay: EV yield in total particles from CHO cells; type: cell-based, Chinese Hamster
Experimental: Table 10 quantifies the results. A similar 5.6-fold increase relative to untreated controls was also observed in CHO-S cells six days after being treated with 6 nM simvastatin.

human adipose MSC cells = assay: relative EV yield by AEX UHPLC peak areas of clarified conditioned media; type: cell-based; settings: 6 nM simvastatin, 4 days, serum free media
Experimental: When cultures reached approximately 50% confluence, the media was removed and replaced with the identical growth media (control) or the growth media supplemented with […] simvastatin (sim treated). The cultures were incubated for an additional 4 days at which point the conditioned media was collected and the cell debris removed by centrifugation. The clarified condition media was then analyzed by anion exchange (AEX) ultra high-performance liquid chromatography (UHPLC), and the relative amount of extracellular vesicles in each sample was estimated by comparing peak areas. Table 11 quantifies the results, showing a 2.6 fold increase in EV production by adipose MSC cells treated with 6 nM simvastatin.

For `C[C@@H](CO)CCC[C@@H](C)[C@H]1CC[C@H]2[C@@H]3CC=C4C[C@@H](O)CC[C@]4(C)[C@H]3CC[C@]12C` [27-hydroxycholesterol], the exosome production [1] is given as “increased exosome production”.

With `CN(C)C(=O)N[C@H]1CC[C@H](CCN2CCN(c3cccc(Cl)c3Cl)CC2)CC1` [Cariprazine, cariprazine] the “Luciferase relative to control” value ([2]; 2 μM cariprazine, Day 2) was 0.8, the “Luciferase relative to control” value ([2]; 2 μM cariprazine, Day 3) was 1.8 and the “Luciferase relative to control” value ([2]; 5 μM cariprazine, Day 2) was 1. The “Luciferase relative to control” value ([2]; 5 μM cariprazine, Day 3) was 2.6, the “Luciferase relative to control” value ([2]; 10 μM cariprazine, Day 2) was 0.8 and the “Luciferase relative to control” value ([2]; 10 μM cariprazine, Day 3) was 2.4. For the same compound, the “Day 4 VCD” value (HiBit reporter cell line [3]) was 5.14 e6/ml, the “Day 4 VCD” value (HiBit reporter cell line [3]; 5 μM) was 7.73 e6/ml and the “Day 4 Viability” value (HiBit reporter cell line [3]; 5 μM) was 95.6%. For the same compound, the “Day 4 Viability” value (HiBit reporter cell line [3]; 10 μM) was 89.7%, the “D6 VCD” value (HiBit reporter cell line [3]; 5 μM) was 11.97 e6/ml and the “Day 6 Viability” value (HiBit reporter cell line [3]; 5 μM) was 92.4%. The “D6 VCD” value (HiBit reporter cell line [3]; 10 μM) was 5.13 e6/ml and the “Day 6 Viability” value (HiBit reporter cell line [3]; 10 μM) was 81.0%.

In the case of `Cc1nc[nH]c1CN1CCN(C(=O)N[C@@H](CC(C)C)C(=O)O)[C@@H](Cc2ccccc2)C1=O` [GGTI-2418], the “effect on exosome production (RLU)” value ([2]; days 2, 4, 6, and 8) was “no effect” and the “effect on cell density (VCD)” value (HiBit reporter cell line [4]; days 2, 4, 6, and 8) was “no effect”.

In the case of `CCC(C)(C)C(=O)O[C@H]1C[C@@H](C)C=C2C=C[C@H](C)[C@H](CC[C@@H]3C[C@@H](O)CC(=O)O3)[C@H]21` [Simvastatin, simvastatin], the “Luciferase relative to control” value ([2]; 10 nM simvastatin, Day 2) was 2.3, the “Luciferase relative to control” value ([2]; 10 nM simvastatin, Day 3) was 4.7 and the “Luciferase relative to control” value ([2]; 10 nM simvastatin, Day 6) was 9.6. The “Luciferase relative to control” value ([2]; 50 nM simvastatin, Day 2) was 5.3, the pIC50 ([2]; simvastatin supplemented into the media, inhibited quantity not stated) was 7.70 to 8.00 and the “Relationship to Control” value ([5]; 5 nM simvastatin for 10 days) was 4x. For the same compound, the “Total Particles” value ([5]; 5 nM simvastatin for 10 days prior to EV purification) was 4.5E+11, the “Relationship to Control” value ([6]; exoIL-12, 5 nM simvastatin for 10 days) was 3.5x^ and the “Total Particles” value ([6]; exoIL-12, 5 nM simvastatin for 10 days prior to EV purification) was 1.79E+11. For the same compound, the “Relationship to Control” value ([6]; exoIL-12, 10 nM simvastatin for 10 days) was 7x, the “Total Particles” value ([6]; exoIL-12, 10 nM simvastatin for 10 days prior to EV purification) was 3.50E+11 and the “increase in EV yield relative to untreated controls” value (CHO-S cells; CHO-S cells six days after being treated with 6 nM simvastatin) was 5.6 fold. The “Relationship to Control” value (CHO-S cells; CHO-S, 10 nM simvastatin) was 5.6X, the “Total Particles” value (CHO-S cells; CHO-S, 10 nM simvastatin) was 2.22E+11 and the “FOLD INCREASE PER CELL EV PRODUCTION” value (human adipose MSC cells) was 2.6 X. The “FOLD INCREASE PER CELL EV PRODUCTION” value (human adipose MSC cells; listed as Sim) was 2.6X, the “D6 VCD” value (HiBit reporter cell line [4]; 2 nM simvastatin) was 17.00 e6/ml and the “Day 4 VCD” value (HiBit reporter cell line [4]; 2 nM simvastatin) was 10.41 e6/ml. For the same compound, the “Day 4 Viability” value (HiBit reporter cell line [4]; 2 nM simvastatin) was 94.9%, the “Day 6 Viability” value (HiBit reporter cell line [4]; 2 nM simvastatin) was 95.5% and the “D6 VCD” value (HiBit reporter cell line [4]; 5 nM simvastatin) was 15.5 e6/ml. The “Day 4 VCD” value (HiBit reporter cell line [4]; 5 nM simvastatin) was 9.16 e6/ml, the “Day 4 Viability” value (HiBit reporter cell line [4]; 5 nM simvastatin) was 92.7% and the “Day 6 Viability” value (HiBit reporter cell line [4]; 5 nM simvastatin) was 95.7%. For the same compound, the “tolerability of producer cells” value (HiBit reporter cell line [4]; 10 nM dose, batch refeed in shake flask, duration of the study) was “well tolerated”, the “D6 VCD” value (HiBit reporter cell line [4]; 10 nM simvastatin) was 12.41 e6/ml and the “Day 4 VCD” value (HiBit reporter cell line [4]; 10 nM simvastatin) was 8.66 e6/ml. The “Day 4 Viability” value (HiBit reporter cell line [4]; 10 nM simvastatin) was 88.8%, the “Day 6 Viability” value (HiBit reporter cell line [4]; 10 nM simvastatin) was 93.6% and the “viable cell density (VCD)” value (HiBit reporter cell line [4]; simvastatin alone in HiBit cultures, Example 7) was “characteristic decrease”.

In the case of `CC(C)c1nc(N(C)S(C)(=O)=O)nc(-c2ccc(F)cc2)c1/C=C/[C@@H](O)C[C@@H](O)CC(=O)O` [rosuvastatin], the “EV expression (luminescence/cell)” value ([2]; 10, 25, 50, 75, 100 nM, four days post induction) was “dose-dependent increase”.

For `CC(C)CCC[C@@H](C)[C@H]1CC[C@H]2[C@@H]3CC=C4C[C@@H](O)CC[C@]4(C)[C@H]3CC[C@]12C` [synthetic cholesterol, cholesterol], the “impact on exosome production” value ([2]; elevated cholesterol alone) was “no impact”, the “simvastatin induction of EV production” value ([2]; supplemental cholesterol together with simvastatin, still higher than control cultures lacking statin) was “largely attenuated” and the “impact on cell culture VCD” value (HiBit reporter cell line [3]) was “no impact”.
